This note sets out measurements from patent publication US20250228899A1, “GENERATING AND UTILIZING ADULT HEPATOCYTE ORGANOIDS” (University of Washington, priority 2021, published 2025).

This data set deals with adult human hepatocytes. Nature of the data set: Adult human hepatocyte organoids grown in different concentrations of A83-01. The format is cell-based. The settings on record: albumin secretion and organoid cross-sectional area readouts. The procedure: In this Example, adult human hepatocytes were grown in different concentrations of A83-01, ranging from 0 nM to 40 nM. FIG. 16 illustrates albumin secretion of hepatocytes grown with 6 different concentrations of A83-01 measured by human albumin ELISA. FIG. 17 illustrates average cross-sectional area of organoids in individual wells grown in 4 different concentrations of A83-01 ranging from 0 to 100 nM. Data is represented as the mean, plus or minus standard deviation of more than 20 wells. FIG. 18 illustrates albumin secretion measured by human Albumin ELISA, comparing adult human hepatocyte organoids grown in 5 different concentrations of A83-01 ranging from 0 nM to 40 nM. The results of these studies illustrate that medium containing less than 50 nM of A83-01 is effective for adult hepatocyte growth.

Take `Cc1cccc(-c2nn(C(=S)Nc3ccccc3)cc2-c2ccnc3ccccc23)n1` [A83-01]: the “A83-01 concentration in medium effective for adult hepatocyte growth” value is given as “less than 50 nM”.
